Experimental data: patent US10010614B2, “Derivatives of GLP-1 like peptides, and uses thereof” (Novo Nordisk A/S, priority 2013, dated 2018)
Like-named read-outs stand apart in the source and are kept apart here. Numbered stars: 1 amine (or outer) side, 2 acyl side, 3 side chain; on linkers, the order of the positions; unused ones are H or OH. Square brackets hold non-standard residues; d marks the D form. Side chains are listed from the residue outwards. Peptide text beside a SMILES is read from it. * marks the point of attachment. C20 diacid = O=C(O)CCCCCCCCCCCCCCCCCCC(=O)*; γGlu = O=C(O)[C@H](CCC(=O)[*:2])N[*:1]; Desaminohistidyl = O=C(CCc1c[nH]cn1)*; εLys = N[C@@H](CCCCN[*:1])C(=O)[*:2]; Trx = NC[C@H]1CC[C@H](C(=O)O)CC1; AEEA = NCCOCCOCC(=O)O; Aib = CC(C)(N)C(=O)O

What was measured:
human GLP-1 receptor [1] = molecular target: T1, human GLP-1 receptor (Homo sapiens, UniProt P43220); assay: In vitro potency, CRE luciferase reporter gene assay in BHK cells expressing the human GLP-1 receptor; format: cell-based; details: whole cell reporter gene assay, 3 h incubation, no HSA, averages of at least two replicates
T1 construct: expressed in transfected cells; host or cells: membranes prepared from BHK cells (parent line BHKTS13), clone FCW467-12A
T1 sequence (P43220 24-463): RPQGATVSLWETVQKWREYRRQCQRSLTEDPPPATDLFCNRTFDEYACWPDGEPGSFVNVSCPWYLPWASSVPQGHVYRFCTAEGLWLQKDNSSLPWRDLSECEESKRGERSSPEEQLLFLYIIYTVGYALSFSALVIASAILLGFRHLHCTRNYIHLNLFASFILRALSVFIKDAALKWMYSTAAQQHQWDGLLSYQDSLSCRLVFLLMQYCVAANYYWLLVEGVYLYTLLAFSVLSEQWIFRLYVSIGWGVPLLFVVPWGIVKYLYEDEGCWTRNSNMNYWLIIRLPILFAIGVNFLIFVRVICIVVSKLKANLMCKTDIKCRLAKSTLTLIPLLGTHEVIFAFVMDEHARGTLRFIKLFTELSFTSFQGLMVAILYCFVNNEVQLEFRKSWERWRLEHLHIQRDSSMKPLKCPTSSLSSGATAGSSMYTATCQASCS
Procedure: The purpose of this example is to test the activity, or potency, of the GLP-1 derivatives in vitro. The in vitro potency is the measure of human GLP-1 receptor activation in a whole cell assay.
Semaglutide was included for comparison.
In vitro potency was determined by measuring the response of the human GLP-1 receptor in a reporter gene assay. The assay was performed in a stably transfected BHK cell line that expresses the human GLP-1 receptor and contains the DNA for the cAMP response element (CRE) coupled to a promoter and the gene for firefly luciferase (CRE luciferase). When the human GLP-1 receptor is activated it results in the production of cAMP, which in turn results in the luciferase protein being expressed. When assay incubation is completed the luciferase substrate (luciferin) is added and the enzyme converts luciferin to oxyluciferin to produce bioluminescence. The luminescence is measured as the readout for the assay.
The cells used in this assay (clone FCW467-12A/KZ10-1) were BHK cells with BHKTS13 as a parent cell line. The cells were derived from a clone (FCW467-12A) that expresses the human GLP-1 receptor and were established by further transfection with CRE luciferase to obtain the current clone.
The cells were cultured at 5% CO2 in Cell Culture Medium. They were aliquoted and stored in liquid nitrogen. Before each assay an aliquot is taken up and washed twice in PBS before being suspended at the desired concentration in the assay specific buffer. For 96-well plates the suspension was made to give a final concentration of 5×10^3 cells/well.
The following chemicals were used in the assay: Pluronic F-68 (10%) (Gibco 2404), human serum albumin (HSA) (Sigma A9511), ovalbumin (Sigma A5503), DMEM w/o phenol red (Gibco 11880-028), 1 M Hepes (Gibco 15630), Glutamax 100× (Gibco 35050) and steadylite plus (PerkinElmer 6016757).
Cell Culture Medium consisted of DMEM medium with 10% FBS (Fetal Bovine Serum; Invitrogen 16140-071), 1 mg/ml G418 (Invitrogen 15140-122), 240 nM MTX (methotrexate; Sigma M9929) and 1% pen/strep (penicillin/streptomycin; Invitrogen 15140-122).
Assay Medium consisted of DMEM w/o phenol red, 10 mM Hepes and 1× Glutamax. The Assay Buffer consisted of 2% ovalbumin and 0.2% Pluronic F-68 in Assay Medium.
1) Cell stocks were thawed in a 37° C. water bath.
2) Cells were washed three times in PBS.
3) The cells were counted and adjusted to 5×10^3 cells/50 μl (1×10^5 cells/ml) in Assay Medium. A 50 μl aliquot of cells was transferred to each well in the assay plate.
4) Stocks of the test compounds and reference compounds were diluted to a concentration of 0.2 μM in Assay Buffer. Compounds were diluted 10-fold to give the following concentrations: 2×10^−7 M, […]; 2×10^−9 M, 2×10^−10 M, 2×10^−11 M, 2×10^−12 M, 2×10^−13 M, and 2×10^−14 M. 5) A 50 μl aliquot of compound or blank was transferred from the dilution plate to the assay plate. Compounds were tested at the following final concentrations: 1×10^−7 M, 1×10^−8 M; 1×10^−9 M, 1×10^−10 M, 1×10^−11 M, 1×10^−12 M, 1×10^−13 M, and 1×10^−14 M. 6) The assay plate was incubated for 3 h in a 5% CO2 incubator at 37° C. 7) The assay plate was removed from the incubator and allowed to stand at room temperature for 15 min. 8) A 100 μl aliquot of steadylite plus reagent was added to each well of the assay plate (reagent was light sensitive). 9) Each assay plate was covered with aluminum foil to protect it from light and shaken for 30 min at room temperature. 10) Each assay plate was read in a Packard TopCount NXT instrument. Calculations and Results
The data from the TopCount instrument were transferred to GraphPad Prism software. The software performs a non-linear regression (log(agonist) vs response).
A minimum of two replicates was measured for each sample. The reported values are averages of the replicates.

human GLP-1 receptor [2] = molecular target: T1, human GLP-1 receptor; assay: GLP-1 receptor binding, competitive binding assay (125I-GLP-1, SPA) on isolated membranes;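 further: test compounds added at a range of concentrations to membranes from cells expressing the human GLP-1 receptor, scored by displacement of labelled ligand, read with WGA SPA beads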
Procedure: The purpose of this example is to test the receptor binding of the GLP-1 derivatives in vitro. The receptor binding is a measure of affinity of a derivative for the human GLP-1 receptor.
In this type of assay a labelled ligand (in this case ^125I-GLP-1) is bound to the receptor. Each derivative is added in a series of concentrations to isolated membranes containing the human GLP-1 receptor and displacement of the labelled ligand is monitored. The receptor binding is reported as the concentration at which half of the labelled ligand is displaced from the receptor, the IC50 value.
The following chemicals were used in the assay: Human serum albumin (HSA) (Sigma A1653), DMEM w/o phenol red (Gibco 11880-028), Pen/strep (Invitrogen 15140-122), G418 (Invitrogen 10131-027), 1 M Hepes (Gibco 15630), EDTA (Invitrogen 15575-038), PBS (Invitrogen 14190-094), fetal calf serum (Invitrogen 16140-071), EGTA, MgCl2 (Merck 1.05832.1000), Tween 20 (Amresco 0850C335), SPA particles (wheat germ agglutinin (WGA) SPA beads, Perkin Elmer RPNQ0001), [^125I]-GLP-1]-(7-36)NH2 (produced in-house), OptiPlate™-96 (Packard 6005290).
Buffer 1 consisted of 20 mM Na-HEPES plus 10 mM EDTA and pH was adjusted to 7.4. Buffer 2 consisted of 20 mM Na-HEPES plus 0.1 mM EDTA and pH was adjusted to 7.4. Assay buffer consisted of 50 mM HEPES supplemented with 5 mM EGTA, 5 mM MgCl2, 0.005% Tween 20 and pH was adjusted to 7.4. An 8% albumin stock consisted of HSA dissolved at 8% (w/v) in assay buffer. An 0.02% albumin stock consisted of HSA dissolved at 0.02% (w/v) in assay buffer.
The cells express the human GLP-1 receptor.
The cells were grown at 5% CO2 in DMEM, 10% fetal calf serum, 1% Pen/Strep (Penicillin/Streptomycin) and 1.0 mg/ml of the selection marker G418.
To make a membrane preparation the cells were grown to approximately 80% confluence. The cells were washed twice in phosphate-buffered saline and harvested. The cells were pelleted using a brief centrifugation and the cell pellet was kept on ice. The cell pellet was homogenised with ULTRA-THURRAX™ dispersing instrument for 20-30 seconds in a suitable amount of buffer 1 (e.g., 10 ml). The homogenate was centrifuged for 15 minutes. The pellet was re-suspended (homogenised) in 10 ml buffer 2 and centrifuged. This step was repeated once more. The resulting pellet was re-suspended in buffer 2 and the protein concentration was determined. The membranes were aliquoted and stored at minus 80° C.
For the receptor binding assay in the presence of low HSA (0.005%) 50 μl of the assay buffer was added to each well of an assay plate.
For the receptor binding assay in the presence of high HSA (2%) 50 μl of the 8% albumin stock was added to each well of an assay plate.
Cell membrane aliquots were thawed and diluted to their working concentration. Fifty μl were added to each well in the assay plate.
WGA SPA beads were suspended in assay buffer at 20 mg/ml. The suspension was diluted to 10 mg/ml in assay buffer just prior to addition to the assay plate. Fifty μl were added to each well in the assay plate.
The incubation was started by adding 25 μl of 480 pM solution of [^125I]-GLP-1]-(7-36)NH2 to each well of the assay plate. A 25 μl aliquot was reserved for measuring total counts/well.
The assay plate was incubated for 2 h at 30° C.
The assay plate was centrifuged for 10 min.
The assay plate was read in a Packard TopCount NXT instrument.
The data from the TopCount instrument were transferred to GraphPad Prism software. The software averaged the values for the replicates and performed a non-linear regression. IC50 values were calculated by the software and reported in nM.

[3] = high serum albumin (2.0% HSA final assay concentration), read-out: High HSA IC50
[4] = low serum albumin (max. 0.001% final assay concentration), read-out: Low HSA IC50
[5] = High HSA IC50 (nM), high serum albumin (2.0% HSA final assay concentration)
[6] = Low HSA IC50 (nM), low serum albumin (max. 0.001% final assay concentration)

Row | IC50 (human GLP-1 receptor [2]; [3]) | IC50 (human GLP-1 receptor [2]; [4]) | SMILES | EC50 (human GLP-1 receptor [1]) | IC50 (human GLP-1 receptor [2]; [5]) | IC50 (human GLP-1 receptor [2]; [6])
1 | 30 nM | 0.05 nM | CC[C@H](C)[C@H](NC(=O)[C@H](Cc1ccccc1)NC(=O)[C@H](CCC(=O)O)NC(=O)[C@H](CCCNC(=N)N)NC(=O)[C@H](C)NC(=O)[C@H](C)NC(=O)[C@H](CCC(N)=O)NC(=O)[C@H](CCC(=O)O)NC(=O)[C@H](CCC(=O)O)NC(=O)[C@H](CC(C)C)NC(=O)[C@H](Cc1ccc(O)cc1)NC(=O)[C@H](CO)NC(=O)[C@H](CO)NC(=O)[C@@H](NC(=O)[C@H](CC(=O)O)NC(=O)[C@H](CO)NC(=O)[C@@H](NC(=O)[C@H](Cc1ccccc1)NC(=O)[C@@H](NC(=O)CNC(=O)[C@H](CCC(=O)O)NC(=O)C(C)(C)NC(=O)[C@@H](N)Cc1c[nH]cn1)[C@@H](C)O)[C@@H](C)O)C(C)C)C(=O)N[C@@H](C)C(=O)N[C@@H](Cc1c[nH]c2ccccc12)C(=O)N[C@@H](CC(C)C)C(=O)N[C@H](C(=O)N[C@@H](CCCNC(=N)N)C(=O)NCC(=O)N[C@@H](CCCNC(=N)N)C(=O)NCC(=O)N[C@@H](CCCCNC(=O)COCCOCCNC(=O)COCCOCCNC(=O)COCCOCCNC(=O)COCCOCCNC(=O)COCCOCCNC(=O)COCCOCCNC(=O)[C@@H](N)CCCCNC(=O)[C@@H](N)CCCCNC(=O)CCCCCCCCCCCCCCCCCCC(=O)O)C(=O)NCC(=O)NCC(=O)N[C@@H](CO)C(=O)N[C@@H](CCCCNC(=O)COCCOCCNC(=O)COCCOCCNC(=O)COCCOCCNC(=O)COCCOCCNC(=O)COCCOCCNC(=O)COCCOCCNC(=O)[C@@H](N)CCCCNC(=O)[C@@H](N)CCCCNC(=O)CCCCCCCCCCCCCCCCCCC(=O)O)C(=O)O)C(C)C [Example 28] (H-H[Aib]EGTFTSDVSSYLEEQAAREFIAWLVRGRGK([AEEA-AEEA-AEEA-AEEA-AEEA-AEEA-εLys-εLys-C20 diacid])GGSK([AEEA-AEEA-AEEA-AEEA-AEEA-AEEA-εLys-εLys-C20 diacid])-OH; N-terminus and C-terminus assumed) | 0.0034 nM |  | 
2 |  |  | CC[C@H](C)[C@H](NC(=O)[C@H](Cc1ccccc1)NC(=O)[C@H](CCC(=O)O)NC(=O)[C@H](CCCNC(=N)N)NC(=O)[C@H](C)NC(=O)[C@H](C)NC(=O)[C@H](CCC(N)=O)NC(=O)[C@H](CCC(=O)O)NC(=O)[C@H](CCC(=O)O)NC(=O)[C@H](CC(C)C)NC(=O)[C@H](Cc1ccc(O)cc1)NC(=O)[C@H](CO)NC(=O)[C@H](CO)NC(=O)[C@@H](NC(=O)[C@H](CC(=O)O)NC(=O)[C@H](CO)NC(=O)[C@@H](NC(=O)[C@H](Cc1ccccc1)NC(=O)[C@@H](NC(=O)CNC(=O)[C@H](CCC(=O)O)NC(=O)C(C)(C)NC(=O)[C@@H](N)Cc1c[nH]cn1)[C@@H](C)O)[C@@H](C)O)C(C)C)C(=O)N[C@@H](C)C(=O)N[C@@H](Cc1c[nH]c2ccccc12)C(=O)N[C@@H](CC(C)C)C(=O)N[C@H](C(=O)N[C@@H](CCCNC(=N)N)C(=O)NCC(=O)N[C@@H](CCCNC(=N)N)C(=O)NCC(=O)N[C@@H](CCCCNC(=O)COCCOCCNC(=O)COCCOCCNC(=O)CC[C@H](NC(=O)[C@H]1CC[C@H](CNC(=O)CCCCCCCCCCCCCCCCCCC(=O)O)CC1)C(=O)O)C(=O)N[C@@H](CO)C(=O)N[C@@H](C)C(=O)N[C@@H](CCC(=O)O)C(=O)N[C@@H](CCCCNC(=O)COCCOCCNC(=O)COCCOCCNC(=O)CC[C@H](NC(=O)[C@H]1CC[C@H](CNC(=O)CCCCCCCCCCCCCCCCCCC(=O)O)CC1)C(=O)O)C(=O)O)C(C)C [Example 13] (H-H[Aib]EGTFTSDVSSYLEEQAAREFIAWLVRGRGK([AEEA-AEEA-γGlu-Trx-C20 diacid])SAEK([AEEA-AEEA-γGlu-Trx-C20 diacid])-OH) | 0.024 nM | 160 nM | 1.4 nM
3 | 270 nM | 4.1 nM | CC[C@H](C)[C@H](NC(=O)[C@H](Cc1ccccc1)NC(=O)[C@H](CCC(=O)O)NC(=O)[C@H](CCCNC(=N)N)NC(=O)[C@H](C)NC(=O)[C@H](C)NC(=O)[C@H](CCC(N)=O)NC(=O)[C@H](CCC(=O)O)NC(=O)[C@H](CCC(=O)O)NC(=O)[C@H](CC(C)C)NC(=O)[C@H](Cc1ccc(O)cc1)NC(=O)[C@H](CO)NC(=O)[C@H](CO)NC(=O)[C@@H](NC(=O)[C@H](CC(=O)O)NC(=O)[C@H](CO)NC(=O)[C@@H](NC(=O)[C@H](Cc1ccccc1)NC(=O)[C@@H](NC(=O)CNC(=O)[C@H](CCC(=O)O)NC(=O)C(C)(C)NC(=O)CCc1cnc[nH]1)[C@@H](C)O)[C@@H](C)O)C(C)C)C(=O)N[C@@H](C)C(=O)N[C@@H](Cc1c[nH]c2ccccc12)C(=O)N[C@@H](CC(C)C)C(=O)N[C@H](C(=O)N[C@@H](CCCNC(=N)N)C(=O)NCC(=O)N[C@@H](CCCNC(=N)N)C(=O)NCC(=O)N[C@@H](CCCCNC(=O)COCCOCCNC(=O)COCCOCCNC(=O)COCCOCCNC(=O)COCCOCCNC(=O)CC[C@H](NC(=O)CCCCCCCCCCCCCCCCCCC(=O)O)C(=O)O)C(=O)NCC(=O)NCC(=O)N[C@@H](CO)C(=O)N[C@@H](CCCCNC(=O)COCCOCCNC(=O)COCCOCCNC(=O)COCCOCCNC(=O)COCCOCCNC(=O)CC[C@H](NC(=O)CCCCCCCCCCCCCCCCCCC(=O)O)C(=O)O)C(=O)O)C(C)C [Example 20] (Desaminohistidyl-[Aib]EGTFTSDVSSYLEEQAAREFIAWLVRGRGK([AEEA-AEEA-AEEA-AEEA-γGlu-C20 diacid])GGSK([AEEA-AEEA-AEEA-AEEA-γGlu-C20 diacid])-OH; C-terminus assumed) | 0.0084 nM |  | 
4 |  |  | CC[C@H](C)[C@H](NC(=O)[C@H](Cc1ccccc1)NC(=O)[C@H](CCC(=O)O)NC(=O)[C@H](CCCNC(=N)N)NC(=O)[C@H](C)NC(=O)[C@H](C)NC(=O)[C@H](CCC(N)=O)NC(=O)[C@H](CCC(=O)O)NC(=O)[C@H](CCC(=O)O)NC(=O)[C@H](CC(C)C)NC(=O)[C@H](Cc1ccc(O)cc1)NC(=O)[C@H](CO)NC(=O)[C@H](CO)NC(=O)[C@@H](NC(=O)[C@H](CC(=O)O)NC(=O)[C@H](CO)NC(=O)[C@@H](NC(=O)[C@H](Cc1ccccc1)NC(=O)[C@@H](NC(=O)CNC(=O)[C@H](CCC(=O)O)NC(=O)C(C)(C)NC(=O)[C@@H](N)Cc1c[nH]cn1)[C@@H](C)O)[C@@H](C)O)C(C)C)C(=O)N[C@@H](C)C(=O)N[C@@H](Cc1c[nH]c2ccccc12)C(=O)N[C@@H](CC(C)C)C(=O)N[C@H](C(=O)N[C@@H](CCCNC(=N)N)C(=O)NCC(=O)N[C@@H](CCCCNC(=O)COCCOCCNC(=O)COCCOCCNC(=O)CC[C@H](NC(=O)[C@H]1CC[C@H](CNC(=O)CCCCCCCCCCCCCCCCCCC(=O)O)CC1)C(=O)O)C(=O)NCC(=O)N[C@@H](C)C(=O)N[C@@H](CCC(=O)O)C(=O)N[C@@H](CO)C(=O)N1CCC[C@H]1C(=O)N[C@@H](CCCCNC(=O)COCCOCCNC(=O)COCCOCCNC(=O)CC[C@H](NC(=O)[C@H]1CC[C@H](CNC(=O)CCCCCCCCCCCCCCCCCCC(=O)O)CC1)C(=O)O)C(=O)O)C(C)C [Example 14] (H-H[Aib]EGTFTSDVSSYLEEQAAREFIAWLVRGK([AEEA-AEEA-γGlu-Trx-C20 diacid])GAESPK([AEEA-AEEA-γGlu-Trx-C20 diacid])-OH) | 0.022 nM | 530 nM | 1.5 nM
